The target of data set [1] is T1, LPL (lipoprotein lipase) (Mus musculus, UniProt P11152).
T1 construct: endogenous in cells; host or cells: C2C12 cells, differentiated
T1 sequence (P11152 28-474): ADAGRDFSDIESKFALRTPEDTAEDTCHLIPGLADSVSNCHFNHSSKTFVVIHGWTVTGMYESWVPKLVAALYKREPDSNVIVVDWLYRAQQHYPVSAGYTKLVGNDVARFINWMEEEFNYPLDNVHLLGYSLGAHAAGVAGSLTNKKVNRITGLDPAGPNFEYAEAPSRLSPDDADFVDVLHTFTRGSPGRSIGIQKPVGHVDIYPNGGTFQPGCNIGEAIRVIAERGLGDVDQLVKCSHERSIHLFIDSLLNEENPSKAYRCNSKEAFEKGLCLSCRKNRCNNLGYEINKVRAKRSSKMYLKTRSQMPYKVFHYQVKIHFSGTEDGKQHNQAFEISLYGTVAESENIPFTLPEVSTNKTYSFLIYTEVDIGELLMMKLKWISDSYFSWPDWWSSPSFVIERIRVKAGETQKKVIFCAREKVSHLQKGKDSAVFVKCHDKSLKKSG
As to the kind of experiment: Confirmation test of LPL activation effect in mouse skeletal muscle cells (C2C12 cells). The settings on record: 8 hours exposure, vs control group. Type of data set: cell-based. The method, then:
Human skeletal muscle cells (human skeletal muscle myoblasts) or mouse skeletal muscle cells (C2C12 cells) that were seeded onto plates, cultured, and differentiated were exposed to a 0.3% dimethyl sulfoxide-containing culture medium in which the compound of the present invention was dissolved (concentration: 10 μM or 30 μM). The medium was removed 8 hours after exposure, 10 mM of Tris-HCl buffer (150 mM NaCl, 10 μ/mL; containing heparin sodium) was added to the cells, and the cells were incubated at 37° C. in the presence of 5% CO2 for 10 minutes. LPL activity in the supernatant was measured using an LPL activity assay kit (made by Roar Biomedical Inc.). LPL activity was evaluated based on the increase in fluorescence intensity 10 to 70 minutes after mixing the supernatant with the LPL substrate. The mean value of the increase in fluorescence intensity of the cells exposed to a 0.3% dimethyl sulfoxide-containing culture medium […] was used as mean value of the control group. Note that the compounds of Examples 18, 19, 32, 45 and 57 were tested using human skeletal muscle cells, and other compounds were tested using mouse skeletal muscle cells. The rate of increase (%) was calculated from the measured values of LPL activity in the control group and the experimental group, according to the following formula. Rate of increase in LPL activity (%)=[(mean value of the experimental group)−(mean value of the control group)]/(mean value of the control group)×100

Broadly, the melting point is the temperature of the solid-liquid transition.

`COc1cc(-c2c[nH]c(-c3ccsc3)n2)ccc1OCc1cccc(C#N)c1.Cl` [Example 72] came in with a melting point of 224 to 227 °C. Moreover, in data set [1] (amount of addition 10 μM), the “Rate of increase in LPL activity” value came to 70%. For the same compound, the “Rate of increase in LPL activity” value in data set [1] (amount of addition 30 μM) was determined as 123%.
The corresponding values for `COc1cc(-c2c[nH]c(-c3ccsc3)n2)ccc1OCc1ccccc1C#N.Cl` [Example 73] are 236 to 237 °C, 55% and 108%.
On the same counts, the results for `COc1cc(-c2c[nH]c(-c3cccc(C(F)(F)F)c3)n2)ccc1OCc1ccc(C#N)cc1.Cl` [Example 75] are 231 to 232 °C, 43% and 89%.
The corresponding values for `COc1cc(OCc2ccc(C#N)cc2)ccc1-c1c[nH]c(-c2ccc(Cl)cc2)n1` [Example 76] are 186 to 187 °C, 115% and 263%.
As for `COc1cc(-c2c[nH]c(-c3ccc(Cl)cc3)n2)ccc1OCc1ccc(C#N)cc1` [Example 77], the melting point lay within 231 to 232 °C. For the same compound, the “Rate of increase in LPL activity” value in data set [1] (amount of addition 10 μM) is 54%. In addition, the “Rate of increase in LPL activity” value in data set [1] (amount of addition 30 μM) came to 133%.
On the same counts, the results for `COc1cc(OCc2ccc(Cl)cc2)ccc1-c1c[nH]c(-c2cccc(F)c2)n1.Cl` [Example 78] are 231 to 232 °C, 14% and 60%.
Compound `COc1cc(-c2c[nH]c(-c3cccc(F)c3)n2)ccc1OCc1ccc(Cl)cc1.Cl` [Example 79] showed a melting point of 235 to 237 °C. The “Rate of increase in LPL activity” value in data set [1] (amount of addition 10 μM) came out at 16%. Also, the “Rate of increase in LPL activity” value in data set [1] (amount of addition 30 μM) was 64%.
Take `COc1cc(OCc2ccc(Br)cc2F)ccc1-c1c[nH]c(-c2ccc(Cl)cc2)n1` [Example 80]: the melting point is 191 to 195 °C. For the same compound, in data set [1] (amount of addition 10 μM), the “Rate of increase in LPL activity” value was determined as 21%. Besides, the “Rate of increase in LPL activity” value in data set [1] (amount of addition 30 μM) is 302%.
The corresponding values for `COc1cc(OCc2ccc(Br)cc2F)ccc1-c1c[nH]c(-c2ccccc2C(F)(F)F)n1.Cl` [Example 81] are 224 to 228 °C, 32% and 89%.
The compound `COc1cc(OCc2ccc(Cl)cc2)ccc1-c1c[nH]c(-c2ccc(Cl)cc2)n1` [Example 82] had a melting point of 181 to 184 °C. Also, the “Rate of increase in LPL activity” value in data set [1] (amount of addition 10 μM) is on record as 27%. Also, the “Rate of increase in LPL activity” value in data set [1] (amount of addition 30 μM) was 86%.
The compound `COc1cc(OCc2ccc(Cl)cc2)ccc1-c1c[nH]c(-c2ccccc2C(F)(F)F)n1` [Example 83] had a melting point of 158 to 161 °C. Moreover, the “Rate of increase in LPL activity” value in data set [1] (amount of addition 10 μM) is reported as 29%. Besides, the “Rate of increase in LPL activity” value in data set [1] (amount of addition 30 μM) was 100%.
The corresponding values for `COc1cc(OCc2ccc(C#N)cc2)ccc1-c1c[nH]c(-c2ccc(C)cc2)n1` [Example 85] are 195 to 198 °C, 10% and 99%.
Turning to `COc1ccc(-c2nc(-c3ccc(OCc4ccc(Br)cc4F)cc3OC)c[nH]2)cc1.Cl` [Example 86], the melting point was more than 250 °C. Moreover, the “Rate of increase in LPL activity” value in data set [1] (amount of addition 10 μM) turned out to be 40%. For the same compound, the “Rate of increase in LPL activity” value in data set [1] (amount of addition 30 μM) stood at 375%.
The corresponding values for `COc1ccc(-c2nc(-c3ccc(OCc4ccc(C#N)cc4)cc3OC)c[nH]2)cc1.Cl` [Example 87] are 183 to 186 °C, 23% and 144%.
The corresponding values for `COc1cc(OCc2ccc(Br)cc2F)ccc1-c1c[nH]c(-c2cccc(Cl)c2)n1.Cl` [Example 88] are 231 to 236 °C, 12% and 98%.
The corresponding values for `COc1cc(OCc2ccc(Br)cc2F)ccc1-c1c[nH]c(-c2ccc(C(C)(C)C)cc2)n1` [Example 90] are 177 to 180 °C, 18% and 130%.
Compound `COc1cc(OCc2ccc(Br)cc2F)ccc1-c1c[nH]c(-c2cc(Cl)cc(Cl)c2)n1` [Example 91] gave a melting point of 260 to 265 °C. Further, the “Rate of increase in LPL activity” value in data set [1] (amount of addition 10 μM) was determined as 28%. Further, the “Rate of increase in LPL activity” value in data set [1] (amount of addition 30 μM) is on record as 95%.
The corresponding values for `COC(=O)c1ccc(-c2nc(-c3ccc(OCc4ccc(Br)cc4F)cc3OC)c[nH]2)cc1` [Example 92] are 158 to 159 °C, 42% and 123%.
Regarding `COc1ccc(-c2nc(-c3ccc(OCc4ccc(Br)cc4F)cc3OC)c[nH]2)cc1OC.Cl` [Example 93], the melting point is 255 to 256 °C. The “Rate of increase in LPL activity” value in data set [1] (amount of addition 10 μM) is recorded as 36%. Further, in data set [1] (amount of addition 30 μM), the “Rate of increase in LPL activity” value is reported as 174%.
The corresponding values for `COc1cc(OCc2ccc(Br)cc2F)ccc1-c1c[nH]c(-c2ccc(C(=O)O)cc2)n1.Cl` [Example 94] are more than 250 °C, 9% and 15%.
The corresponding values for `COc1cc(OCc2ccc(C#N)cc2)ccc1-c1c[nH]c(-c2ccc(F)c(F)c2)n1` [Example 96] are 173 to 176 °C, 27% and 96%.
On the same counts, the results for `COc1cc(OCc2ccc(C#N)cc2)ccc1-c1c[nH]c(-c2cccc(Cl)c2)n1` [Example 97] are 154 to 157 °C, 27% and 63%.
`COc1cccc(-c2nc(-c3ccc(OCc4ccc(Br)cc4F)cc3OC)c[nH]2)c1.Cl` [Example 99]: the melting point is 255 to 258 °C. The “Rate of increase in LPL activity” value in data set [1] (amount of addition 10 μM) stood at 14%. Further, in data set [1] (amount of addition 30 μM), the “Rate of increase in LPL activity” value is reported as 90%.
On the same counts, the results for `COc1cccc(-c2nc(-c3ccc(OCc4ccc(C#N)cc4)cc3OC)c[nH]2)c1` [Example 100] are 139 to 142 °C, 12% and 43%.
As for `COc1cc(OCc2ccc(Br)cc2F)ccc1-c1c[nH]c(-c2ccc(Cl)c(Cl)c2)n1` [Example 102], the melting point was 260 to 262 °C. In addition, the “Rate of increase in LPL activity” value in data set [1] (amount of addition 10 μM) was found to be 44%. Moreover, the “Rate of increase in LPL activity” value in data set [1] (amount of addition 30 μM) came to 88%.
The corresponding values for `COc1cc(OCc2ccc(Br)cc2F)ccc1-c1c[nH]c(-c2ccc(F)c(Cl)c2)n1` [Example 103] are 237 to 243 °C, 30% and 92%.
The corresponding values for `COc1ccc(-c2nc(-c3ccc(OCc4ccc(Cl)cc4)cc3OC)c[nH]2)cc1` [Example 104] are 170 to 173 °C, 74% and 365%.
The corresponding values for `COc1cc(OCc2ccccc2)ccc1-c1c[nH]c(-c2ccc(C)cc2)n1` [Example 109] are 219 to 222 °C, 12% and 77%.
Consider `COc1cc(OCc2ccc(Cl)cc2)ccc1-c1c[nH]c(-c2ccc(Cl)c(Cl)c2)n1` [Example 110], for which the melting point was in the range of 145 to 148 °C. Besides, in data set [1] (amount of addition 10 μM), the “Rate of increase in LPL activity” value turned out to be 37%. Also, in data set [1] (amount of addition 30 μM), the “Rate of increase in LPL activity” value turned out to be 106%.
The corresponding values for `COc1cc(OCc2ccc(C#N)cc2)ccc1-c1c[nH]c(-c2ccc(Cl)c(Cl)c2)n1` [Example 111] are 137 to 140 °C, 61% and 81%.
The corresponding values for `COc1cc(OCc2ccc(Cl)cc2)ccc1-c1c[nH]c(-c2ccc(F)c(F)c2)n1` [Example 112] are 252 to 257 °C, 58% and 199%.
On the same counts, the results for `COc1cc(OCc2ccc(Cl)cc2)ccc1-c1c[nH]c(-c2cccc(Cl)c2)n1.Cl` [Example 113] are 223 to 226 °C, 4% and 123%.
On to `COc1cc(OCc2ccc(Cl)cc2)ccc1-c1c[nH]c(-c2ccc(C(C)(C)C)cc2)n1` [Example 115], for which the melting point lay within 154 to 157 °C. Also, in data set [1] (amount of addition 10 μM), the “Rate of increase in LPL activity” value came out at 62%. The “Rate of increase in LPL activity” value in data set [1] (amount of addition 30 μM) came out at 88%.
